Laboratory results published in patent publication US20260068885A1, “HERBICIDAL COMPOSITIONS” (BAYER AKTIENGESELLSCHAFT, priority 2022, published 2026).

Columns and labels:
Assay in all cases: Post-emergence herbicidal action against harmful plants (greenhouse)
Assay type in all cases: in vivo
[1] = system: Abutilon theophrasti (ABUTH)
Procedure: (§1) Seeds of monocotyledonous and dicotyledonous weed and crop plants are laid out in sandy loam soil in wood-fibre pots, covered with soil and cultivated in a greenhouse under good growth conditions. 2 to 3 weeks after sowing, the test plants are treated at the one-leaf stage. The compounds of the invention, formulated in the form of wettable powders (WP) or as emulsion concentrates (EC), are then sprayed onto the green parts of the plants in the form of an aqueous suspension or emulsion at a water application rate equivalent to 600 to 800 l/ha, with addition of 0.2% wetting agent. After the test plants have been […], the action of the preparations is assessed visually in comparison to untreated controls (herbicidal action in percent (%): 100% activity=the plants have died, 0% activity=like control plants). […] The tables below illustrate, in an illustrative manner, the post-emergence herbicidal action of the compounds of the invention, the herbicidal activity being stated in percent.
(§2) In the tables that follow, the abbreviations mean the following: • E: means the synergism value to be expected according to the Colby formula. • Δ SYN: means the difference between the actual and expected synergism value. • DAT: means days after treatment.

Setaria viridis (SETVI) = system: Setaria viridis (SETVI)
Procedure: as §1, §2

[2] = system: Polygonum convolvulus (POLCO)
[3] = system: Brachiaria platyphylla (BRAPP)
Procedure: (§3) Seeds of monocotyledonous and dicotyledonous weed and crop plants are laid out in sandy loam soil in wood-fibre pots, covered with soil and cultivated in a greenhouse under good growth conditions. 2 to 3 weeks after sowing, the test plants are treated at the one-leaf stage. The compounds of the invention, formulated in the form of wettable powders (WP) or as emulsion concentrates (EC), are then sprayed onto the green parts of the plants in the form of an aqueous suspension or emulsion at a water application rate equivalent to 600 to 800 l/ha, with addition of 0.2% wetting agent. After the test plants have been left to stand in the greenhouse under optimal growth conditions for about 3 weeks, the action of the preparations is assessed visually in comparison to untreated controls (herbicidal action in percent (%): 100% activity=the plants have died, 0% activity=like control plants). […] The tables below illustrate, in an illustrative manner, the post-emergence herbicidal action of the compounds of the invention, the herbicidal activity being stated in percent.
as §2

Emex australis (EMEAU) = system: Emex australis (EMEAU)
Procedure: as §3, §2

[4] = system: Euphorbia heterophylla (EPHHL); conditions: EPHHL 21 DAT
Procedure: as §3, §2

[5] = system: Sorghum halepense (SORHA)
Procedure: as §3, §2

[6] = system: Erigeron bonariensis (ERIBO)
Procedure: as §1, §2

[7] = system: Pharbitis purpurea (PHBPU)
Solanum nigrum (SOLNI) = system: Solanum nigrum (SOLNI)
Procedure: as §1, §2

Cyperus iria (CYPIR) = system: Cyperus iria (CYPIR)
Procedure: as §1, §2

[8] = system: Xanthium strumarium (XANST); conditions: application rate 1 g a.i./ha
[9] = application rate 0.25 g a.i./ha

`COc1c(Cl)ccc(-c2nc(C(=O)O)c(Cl)c(N)c2F)c1F` [florpyrauxifen] gave a Herbicidal efficacy ([1]; ABUTH 21 DAT, 0.3 g a.i./ha) of 90%, a Herbicidal efficacy (Setaria viridis (SETVI); SETVI 10 DAT, 0.3 g a.i./ha) of 30% and a Herbicidal efficacy (Setaria viridis (SETVI); SETVI 21 DAT, 0.3 g a.i./ha) of 40%. The Herbicidal efficacy ([2]; POLCO 10 DAT, 1.2 g a.i./ha) was 90%, the Herbicidal efficacy ([2]; POLCO 21 DAT, 1.2 g a.i./ha) was 90% and the Herbicidal efficacy ([3]; BRAPP 10 DAT, 0.3 g a.i./ha) was 75%. It also gave a Herbicidal efficacy ([3]; BRAPP 21 DAT, 0.3 g a.i./ha) of 60%, a Herbicidal efficacy (Emex australis (EMEAU); EMEAU 21 DAT, 1.2 g a.i./ha) of 75% and a Herbicidal efficacy ([4]; 0.3 g a.i./ha) of 90%. The “Herbicidal efficacy [%] against SORHA 10 DAT” value ([5]; application rate 0.3 g a.i./ha) was 10%.

Compound `COc1ccc(-n2nc(C)cc(C(=O)C3C(=O)CCCC3=O)c2=O)cc1OC` [dioxopyritrione] has a Herbicidal efficacy ([1]; ABUTH 21 DAT, 10 g a.i./ha) of 80%, a Herbicidal efficacy ([6]; ERIBO 10 DAT, 10 g a.i./ha) of 90% and a Herbicidal efficacy ([6]; ERIBO 21 DAT, 10 g a.i./ha) of 88%. For the same compound, the Herbicidal efficacy (Setaria viridis (SETVI); SETVI 10 DAT, 2.5 g a.i./ha) was 10%, the Herbicidal efficacy (Setaria viridis (SETVI); SETVI 10 DAT, 10 g a.i./ha) was 20% and the Herbicidal efficacy (Setaria viridis (SETVI); SETVI 21 DAT, 2.5 g a.i./ha) was 10%. The Herbicidal efficacy (Setaria viridis (SETVI); SETVI 21 DAT, 10 g a.i./ha) was 20%, the Herbicidal efficacy ([7]; PHBPU 21 DAT, 2.5 g a.i./ha) was 20% and the Herbicidal efficacy ([2]; POLCO 10 DAT, 2.5 g a.i./ha) was 80%. It also gave a Herbicidal efficacy ([2]; POLCO 10 DAT, 10 g a.i./ha) of 80%, a Herbicidal efficacy ([2]; POLCO 21 DAT, 10 g a.i./ha) of 70% and a Herbicidal efficacy ([3]; BRAPP 10 DAT, 2.5 g a.i./ha) of 40%. The Herbicidal efficacy ([3]; BRAPP 10 DAT, 10 g a.i./ha) was 70%, the Herbicidal efficacy ([3]; BRAPP 21 DAT, 2.5 g a.i./ha) was 20% and the Herbicidal efficacy ([3]; BRAPP 21 DAT, 10 g a.i./ha) was 30%. For the same compound, the “Herbicidal efficacy [%] against SORHA 10 DAT” value ([5]; application rate 2.5 g a.i./ha) was 20%, the “Herbicidal efficacy [%] against SORHA 21 DAT” value ([5]; application rate 2.5 g a.i./ha) was 0% and the “Herbicidal efficacy [%] against SORHA 10 DAT” value ([5]; application rate 10 g a.i./ha) was 30%. The “Herbicidal efficacy [%] against SORHA 21 DAT” value ([5]; application rate 10 g a.i./ha) was 10%.

`FC(F)c1cc(-c2c(Cl)cccc2Oc2ncc(Cl)cn2)on1` [rimisoxafen] was tested, and the “Herbicidal efficacy [%] against SOLNI 10 DAT” value (Solanum nigrum (SOLNI); application rate 80 g a.i./ha) was 88%, the “Herbicidal efficacy [%] against SOLNI 21 DAT” value (Solanum nigrum (SOLNI); application rate 80 g a.i./ha) was 80% and the Herbicidal efficacy (Cyperus iria (CYPIR); CYPIR 21 DAT, 20 g a.i./ha) was 88%. The Herbicidal efficacy ([1]; ABUTH 10 DAT, 20 g a.i./ha) was 88%, the Herbicidal efficacy ([1]; ABUTH 21 DAT, 20 g a.i./ha) was 40% and the Herbicidal efficacy ([6]; ERIBO 21 DAT, 20 g a.i./ha) was 10%. The Herbicidal efficacy (Setaria viridis (SETVI); SETVI 21 DAT, 20 g a.i./ha) was 30%, the Herbicidal efficacy ([7]; PHBPU 10 DAT, 20 g a.i./ha) was 30% and the Herbicidal efficacy ([7]; PHBPU 21 DAT, 20 g a.i./ha) was 20%. It also gave a Herbicidal efficacy ([2]; POLCO 21 DAT, 20 g a.i./ha) of 60%, a Herbicidal efficacy ([2]; POLCO 21 DAT, 80 g a.i./ha) of 88% and a Herbicidal efficacy ([3]; BRAPP 10 DAT, 20 g a.i./ha) of 30%. For the same compound, the Herbicidal efficacy ([3]; BRAPP 21 DAT, 20 g a.i./ha) was 20%, the Herbicidal efficacy (Emex australis (EMEAU); EMEAU 10 DAT, 80 g a.i./ha) was 88% and the Herbicidal efficacy (Emex australis (EMEAU); EMEAU 21 DAT, 80 g a.i./ha) was 80%. For the same compound, the “Herbicidal efficacy [%] against SORHA 10 DAT” value ([5]; application rate 20 g a.i./ha) was 10% and the “Herbicidal efficacy [%] against SORHA 21 DAT” value ([5]; application rate 20 g a.i./ha) was 10%.

For `Nc1c(F)c(-c2ccc3cc[nH]c3c2F)nc(C(=O)O)c1Cl` [P3, 4-amino-3-chloro-5-fluoro-6-(7-fluoro-1H-indol-6-yl)pyridine-2-carboxylic acid], the Herbicidal efficacy (Solanum nigrum (SOLNI); SOLNI 21 DAT, 1.2 g a.i./ha) was 85%, the Herbicidal efficacy ([1]; ABUTH 21 DAT, 0.3 g a.i./ha) was 60% and the Herbicidal efficacy ([1]; ABUTH 21 DAT, 1.2 g a.i./ha) was 60%. The Herbicidal efficacy (Setaria viridis (SETVI); SETVI 21 DAT, 0.3 g a.i./ha) was 70%, the Herbicidal efficacy ([3]; BRAPP 10 DAT, 0.3 g a.i./ha) was 70% and the Herbicidal efficacy ([3]; BRAPP 21 DAT, 0.3 g a.i./ha) was 60%. For the same compound, the Herbicidal efficacy ([3]; BRAPP 21 DAT, 1.2 g a.i./ha) was 75%, the Herbicidal efficacy (Emex australis (EMEAU); EMEAU 21 DAT, 1.2 g a.i./ha) was 70% and the “Herbicidal efficacy [%] against SORHA 10 DAT” value ([5]; application rate 0.3 g a.i./ha) was 30%. The “Herbicidal efficacy [%] against SORHA 21 DAT” value ([5]; application rate 0.3 g a.i./ha) was 10%, the “Herbicidal efficacy [%] against SORHA 10 DAT” value ([5]; application rate 1.2 g a.i./ha) was 60% and the “Herbicidal efficacy [%] against SORHA 21 DAT” value ([5]; application rate 1.2 g a.i./ha) was 30%.

For `CN1C[C@H](c2cccc(C(F)(F)F)c2)[C@@H](C(=O)Nc2ccccc2F)C1=O` [tetflupyrolimet], the “Herbicidal efficacy [%] against SOLNI 10 DAT” value (Solanum nigrum (SOLNI); application rate 400 g a.i./ha) was 10%, the “Herbicidal efficacy [%] against SOLNI 21 DAT” value (Solanum nigrum (SOLNI); application rate 400 g a.i./ha) was 0% and the Herbicidal efficacy (Cyperus iria (CYPIR); CYPIR 10 DAT, 400 g a.i./ha) was 0%. The Herbicidal efficacy (Cyperus iria (CYPIR); CYPIR 21 DAT, 400 g a.i./ha) was 0%, the Herbicidal efficacy ([1]; ABUTH 10 DAT, 400 g a.i./ha) was 0% and the Herbicidal efficacy ([1]; ABUTH 21 DAT, 400 g a.i./ha) was 0%. The Herbicidal efficacy ([2]; POLCO 10 DAT, 400 g a.i./ha) was 10%, the Herbicidal efficacy ([2]; POLCO 21 DAT, 100 g a.i./ha) was 0% and the Herbicidal efficacy ([2]; POLCO 21 DAT, 400 g a.i./ha) was 0%. For the same compound, the Herbicidal efficacy ([3]; BRAPP 21 DAT, 400 g a.i./ha) was 70%, the “Herbicidal efficacy [%] against SORHA 10 DAT” value ([5]; application rate 100 g a.i./ha) was 10% and the “Herbicidal efficacy [%] against SORHA 21 DAT” value ([5]; application rate 100 g a.i./ha) was 0%.

`C#CCN1C(=O)C(F)(F)Oc2cc(F)c(-n3c(=O)n(C)c(=S)n(C)c3=O)cc21` [trifludimoxazin] was tested, and the “Herbicidal efficacy [%] against SOLNI 10 DAT” value (Solanum nigrum (SOLNI); application rate 1 g a.i./ha) was 88%, the “Herbicidal efficacy [%] against SOLNI 21 DAT” value (Solanum nigrum (SOLNI); application rate 1 g a.i./ha) was 60% and the Herbicidal efficacy ([1]; ABUTH 10 DAT, 0.25 g a.i./ha) was 88%. For the same compound, the Herbicidal efficacy ([1]; ABUTH 10 DAT, 1 g a.i./ha) was 85%, the Herbicidal efficacy ([1]; ABUTH 21 DAT, 0.25 g a.i./ha) was 80% and the Herbicidal efficacy ([1]; ABUTH 21 DAT, 1 g a.i./ha) was 75%. The Herbicidal efficacy (Setaria viridis (SETVI); SETVI 10 DAT, 0.25 g a.i./ha) was 85%, the Herbicidal efficacy (Setaria viridis (SETVI); SETVI 21 DAT, 0.25 g a.i./ha) was 70% and the Herbicidal efficacy ([7]; PHBPU 21 DAT, 1 g a.i./ha) was 80%. It also gave a Herbicidal efficacy ([3]; BRAPP 10 DAT, 1 g a.i./ha) of 80%, a Herbicidal efficacy (Emex australis (EMEAU); EMEAU 21 DAT, 1 g a.i./ha) of 85% and a Herbicidal efficacy ([4]; 0.25 g a.i./ha) of 88%. For the same compound, the “Herbicidal efficacy [%] against SORHA 10 DAT” value [5, 9] was 70%, the “Herbicidal efficacy [%] against SORHA 21 DAT” value [5, 9] was 40% and the “Herbicidal efficacy [%] against SORHA 10 DAT” value ([5]; application rate 1 g a.i./ha) was 85%. The “Herbicidal efficacy [%] against SORHA 21 DAT” value ([5]; application rate 1 g a.i./ha) was 70%.

In the case of `CCOC(=O)C1(C)CC(c2cc(-n3c(=O)cc(C(F)(F)F)n(C)c3=O)c(F)cc2Cl)=NO1` (stereo not shown) [P4, ethyl 3-{2-chloro-4-fluoro-5-[3-methyl-2,6-dioxo-4-(trifluoromethyl)-3,6-dihydropyrimidin-1(2H)-yl]phenyl}-5-methyl-4,5-dihydro-1,2-oxazole-5-carboxylate], the Herbicidal efficacy (Setaria viridis (SETVI); SETVI 10 DAT, 1 g a.i./ha) is reported as 88%, the Herbicidal efficacy (Setaria viridis (SETVI); SETVI 21 DAT, 1 g a.i./ha) is reported as 80% and the Herbicidal efficacy (Emex australis (EMEAU); EMEAU 21 DAT, 1 g a.i./ha) is reported as 70%. It also gave a Herbicidal efficacy ([4]; 1 g a.i./ha) of 80%.

With `COC(=O)CCNC(=O)C(C)Sc1cc(-n2c(=O)cc(C(F)(F)F)n(C)c2=O)c(F)cc1Cl` (stereo not shown) [tiafenacil] the “Herbicidal efficacy [%] against XANST 10 DAT” value ([8]; 10 DAT) was 88%, the “Herbicidal efficacy [%] against XANST 21 DAT” value ([8]; 21 DAT) was 85% and the “Herbicidal efficacy [%] against SOLNI 10 DAT” value (Solanum nigrum (SOLNI); application rate 1 g a.i./ha) was 88%. For the same compound, the “Herbicidal efficacy [%] against SOLNI 21 DAT” value (Solanum nigrum (SOLNI); application rate 1 g a.i./ha) was 60%, the Herbicidal efficacy (Cyperus iria (CYPIR); CYPIR 21 DAT, 0.25 g a.i./ha) was 88% and the Herbicidal efficacy ([3]; BRAPP 21 DAT, 1 g a.i./ha) was 40%. The “Herbicidal efficacy [%] against SORHA 21 DAT” value ([5]; application rate 1 g a.i./ha) was 85%.
